Results on three compounds are retold here after PMC10895676, “Antiviral Activity of Lipophilic Nucleoside Tetraphosphate Compounds” (Journal of Medicinal Chemistry, 2024).

SMILES strings stand for the structures. “Also recorded” adds a separate entry of the source.

The assay has as its target T1, human DNA polymerase γ (Homo sapiens, UniProt P54098).
T1 construct: purchased Chimerx
T1 sequence (P54098 1-1239): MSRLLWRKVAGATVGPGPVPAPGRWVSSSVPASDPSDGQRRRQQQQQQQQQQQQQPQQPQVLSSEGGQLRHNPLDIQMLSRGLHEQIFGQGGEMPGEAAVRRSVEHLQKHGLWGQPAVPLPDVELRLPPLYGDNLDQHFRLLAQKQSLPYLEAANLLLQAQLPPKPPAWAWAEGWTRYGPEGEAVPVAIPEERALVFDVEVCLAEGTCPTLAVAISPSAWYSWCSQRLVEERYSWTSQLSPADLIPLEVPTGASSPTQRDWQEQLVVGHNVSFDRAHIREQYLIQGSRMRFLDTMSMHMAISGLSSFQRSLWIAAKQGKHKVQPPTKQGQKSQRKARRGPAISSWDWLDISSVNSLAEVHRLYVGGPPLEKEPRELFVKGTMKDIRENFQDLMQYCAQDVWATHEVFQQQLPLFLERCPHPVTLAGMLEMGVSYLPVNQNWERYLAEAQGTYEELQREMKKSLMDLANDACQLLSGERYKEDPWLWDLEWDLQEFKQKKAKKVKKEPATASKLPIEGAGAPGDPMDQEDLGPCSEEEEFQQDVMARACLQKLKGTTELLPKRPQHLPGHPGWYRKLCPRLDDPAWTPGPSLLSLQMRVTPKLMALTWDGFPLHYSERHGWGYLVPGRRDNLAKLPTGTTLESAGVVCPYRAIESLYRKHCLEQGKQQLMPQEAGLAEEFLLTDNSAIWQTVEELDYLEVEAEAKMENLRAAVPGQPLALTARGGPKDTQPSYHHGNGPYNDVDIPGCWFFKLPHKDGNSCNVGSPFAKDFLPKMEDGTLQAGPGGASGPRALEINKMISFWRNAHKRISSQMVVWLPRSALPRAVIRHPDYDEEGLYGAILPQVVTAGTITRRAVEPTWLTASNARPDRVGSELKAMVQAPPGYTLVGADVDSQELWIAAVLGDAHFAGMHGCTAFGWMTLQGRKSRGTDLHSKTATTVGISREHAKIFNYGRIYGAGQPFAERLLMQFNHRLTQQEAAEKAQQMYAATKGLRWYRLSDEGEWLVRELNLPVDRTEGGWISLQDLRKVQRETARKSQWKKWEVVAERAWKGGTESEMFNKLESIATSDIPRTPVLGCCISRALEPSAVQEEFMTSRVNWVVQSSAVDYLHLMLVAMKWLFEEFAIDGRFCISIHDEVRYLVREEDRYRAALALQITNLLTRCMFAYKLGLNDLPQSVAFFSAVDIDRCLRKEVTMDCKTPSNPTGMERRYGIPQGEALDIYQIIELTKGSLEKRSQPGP
As to the kind of experiment: Primer extension assay using human DNA polymerase γ. The class given is biochemical. Conditions: 120 min, 2 U, 37 °C. From the text:
Encouraged by the previously obtained results that γ-phosphate-modified-d4TDPs 3, γ-monoalkylated d4TTP derivatives as well as d4TDP were accepted as substrates by HIV-RT,[49],[50],[55],[59]−[61] δ-dialkylated d4T tetraphosphate analogues 4,5, δ-monoalkylated d4T tetraphosphate analogues 20 and 24 and d4T4P were investigated in primer extension assays in the presence of HIV-RT or the three different human DNA polymerases α, β and γ. D4TTP (for the compounds 4–9) and the natural thymidine triphosphate (TTP) were used as reference compounds.
Figure 6 Primer extension assay using HIV-RT (A), human polymerases α (B), β (C), and γ (D). (Figure 6A). Primer extension assay using HIV-RT (30 min, 6U). Lane 1: (+) dATP, dCTP, dGTP, and TTP with HIV-RT. Lane 2: (−) dATP, dCTP, dGTP, and TTP without HIV-RT. Lane 3: TTP. […] Lane 5: δ-(C4; C18)-d4T4P 4d. […] Lane 7: δ-(C18)-d4T4P 20. Lane 8: δ-C-(C18)-d4T4P 24. Lane 9: d4T4P. Lane 10: d4TTP. Lane 11: d4TDP. HIV-RT assay reaction conditions: 50 mM Tris–HCl (pH 8.6), 10 mM MgCl2, 40 mM KCl, 250 μM dNTPs, HIV-RT (6 U), 0.20 μM DNA hybrid, primer-template-hybrid 0.32 mM in a reaction volume of 10 μL, incubated at 37 °C for 0.5 h, 80 °C for 7 min. Primer extension assays: 50 mA, 45 w for 4 h. (Figure 6B). For human DNA polymerase α assay (60 min, 2 U): Lane 1: (+) dATP, dCTP, dGTP, and TTP with human polymerase α. Lane 2: (−) dATP, dCTP, dGTP, and TTP without human polymerase α. Lane 3: TTP. […] Lane 5: δ-(C4; C18)-d4T4P 4d. […] Lane 7: δ-(C18)-d4T4P 20. Lane 8: δ-C-(C18)-d4T4P 24. Lane 9: d4T4P. Lane 10: d4TTP. Human DNA polymerase α assay conditions: 60 mM Tris–HCl (pH 8), 5 mM Mg(OAc)2, 100 mM KCl, 1.0 mM dithiothreitol, 0.1 mM spermine, 0.01% (w/v) bovine serum albumin, 250 μM dNTPs, 2 U human polymerase α, 0.20 μM DNA hybrid, and primer-template-hybrid 0.32 mM in a reaction volume of 10 μL, incubated at 37 °C for 1 h, 80 °C for 7 min. Primer extension assays: 50 mA, 45 w for 3 h. (Figure 6C). For human DNA polymerase β assay (60 min, 2 U): Lane 1: (+) dATP, dCTP, dGTP, and TTP with human polymerase β. […]

On to `Cc1cn([C@H]2C=C[C@@H](COP(=O)(O)OP(=O)(O)OP(=O)(O)OP(=O)(O)O)O2)c(=O)[nH]c1=O` [d4T4P, 2′,3′-didehydro-2′,3′-dideoxythymidine-5′-tetraphosphate], for which the “substrate for human DNA polymerase γ (primer extension)” value (shortened to “substrate for human DNA polymerase γ”) is on record as “nonsubstrates; also recorded: not a substrate”.

`CCCCCCCCCCCCCCCCCCOP(=O)(O)OP(=O)(O)OP(=O)(O)OP(=O)(O)OC[C@@H]1C=C[C@H](n2cc(C)c(=O)[nH]c2=O)O1` [compound 20, δ-(Alkyl-C18)-d4T4P]: the “substrate for human DNA polymerase γ” value is “nonsubstrates”.

Turning to `CCCCCCCCCCCCCCCCCCP(=O)(O)OP(=O)(O)OP(=O)(O)OP(=O)(O)OC[C@@H]1C=C[C@H](n2cc(C)c(=O)[nH]c2=O)O1` [compound 24, δ-C-(Alkyl-C18)-d4T4P], the “substrate for human DNA polymerase γ” value is “nonsubstrates”.
